In ChEMBL document CHEMBL1154410, “In vivo efficacy of a novel oxazolidinone compound in two mouse models of infection” (Antimicrob Agents Chemother, 2007):
Values after ≈ are worked out from the molar mass of the structure shown. Active and inactive are the calls of the source. The rule behind the calls is not given here.

What was measured:
Staphylococcus aureus [1] = experiment: Antibacterial activity against methicillin-susceptible Staphylococcus aureus Smith infected in C3H mouse assessed as eradication at 25 mg/kg/day, po administered within 15 mins of infection assessed per gram of kidney measured after 48 hrs by organ burden assay relative to control; format: functional
Staphylococcus aureus [2] = experiment: Antibacterial activity against methicillin-susceptible Staphylococcus aureus Smith infected in C3H mouse assessed as eradication at 12.5 mg/kg/day, po administered within 15 mins of infection assessed per gram of kidney measured after 48 hrs by organ burden assay relative to control; format: functional
Staphylococcus aureus [3] = experiment: Antibacterial activity against methicillin-susceptible Staphylococcus aureus Smith infected in C3H mouse assessed as eradication at 6.25 mg/kg/day, po administered within 15 mins of infection assessed per gram of kidney measured after 48 hrs by organ burden assay relative to control; format: functional
Staphylococcus aureus [4] = experiment: Antibacterial activity against methicillin-susceptible Staphylococcus aureus Smith infected in C3H mouse assessed as eradication at 3.12 mg/kg/day, po administered within 15 mins of infection assessed per gram of kidney measured after 48 hrs by organ burden assay relative to control; format: functional
Staphylococcus aureus [5] = experiment: Antibacterial activity against methicillin-susceptible Staphylococcus aureus Smith infected in C3H mouse assessed as reduction in log number of CFU at 25 mg/kg/day, po administered within 15 mins of infection measured after 48 hrs by organ burden assay relative to control; format: functional
Staphylococcus aureus [6] = experiment: Antibacterial activity against methicillin-susceptible Staphylococcus aureus Smith infected in C3H mouse assessed as reduction in log number of CFU at 12.5 mg/kg/day, po administered within 15 mins of infection measured after 48 hrs by organ burden assay relative to control; format: functional
Staphylococcus aureus [7] = experiment: Antibacterial activity against methicillin-susceptible Staphylococcus aureus Smith infected in C3H mouse assessed as reduction in log number of CFU at 6.25 mg/kg/day, po administered within 15 mins of infection measured after 48 hrs by organ burden assay relative to control; format: functional
Staphylococcus aureus [8] = experiment: Antibacterial activity against methicillin-susceptible Staphylococcus aureus Smith infected in C3H mouse assessed as reduction in log number of CFU at 3.12 mg/kg/day, po administered within 15 mins of infection measured after 48 hrs by organ burden assay relative to control; format: functional
Staphylococcus aureus [9] = experiment: Antibacterial activity against methicillin-susceptible Staphylococcus aureus Smith infected in C3H mouse assessed as eradication at 25 mg/kg/day, iv administered within 15 mins of infection assessed per gram of kidney measured after 48 hrs by organ burden assay relative to control; format: functional
Staphylococcus aureus [10] = experiment: Antibacterial activity against methicillin-susceptible Staphylococcus aureus Smith infected in C3H mouse assessed as eradication at 12.5 mg/kg/day, iv administered within 15 mins of infection assessed per gram of kidney measured after 48 hrs by organ burden assay relative to control; format: functional
Staphylococcus aureus [11] = experiment: Antibacterial activity against methicillin-susceptible Staphylococcus aureus Smith infected in C3H mouse assessed as eradication at 6.25 mg/kg/day, iv administered within 15 mins of infection assessed per gram of kidney measured after 48 hrs by organ burden assay relative to control; format: functional
Staphylococcus aureus [12] = experiment: Antibacterial activity against methicillin-susceptible Staphylococcus aureus Smith infected in C3H mouse assessed as eradication at 3.12 mg/kg/day, iv administered within 15 mins of infection assessed per gram of kidney measured after 48 hrs by organ burden assay relative to control; format: functional
Staphylococcus aureus [13] = experiment: Antibacterial activity against methicillin-susceptible Staphylococcus aureus Smith infected in C3H mouse assessed as reduction in log number of CFU at 25 mg/kg/day, iv administered within 15 mins of infection measured after 48 hrs by organ burden assay relative to control; format: functional
Staphylococcus aureus [14] = experiment: Antibacterial activity against methicillin-susceptible Staphylococcus aureus Smith infected in C3H mouse assessed as reduction in log number of CFU at 12.5 mg/kg/day, iv administered within 15 mins of infection measured after 48 hrs by organ burden assay relative to control; format: functional
Staphylococcus aureus [15] = experiment: Antibacterial activity against methicillin-susceptible Staphylococcus aureus Smith infected in C3H mouse assessed as reduction in log number of CFU at 6.25 mg/kg/day, iv administered within 15 mins of infection measured after 48 hrs by organ burden assay relative to control; format: functional
Staphylococcus aureus [16] = experiment: Antibacterial activity against methicillin-susceptible Staphylococcus aureus Smith infected in C3H mouse assessed as reduction in log number of CFU at 3.12 mg/kg/day, iv administered within 15 mins of infection measured after 48 hrs by organ burden assay relative to control; format: functional
Staphylococcus aureus [17] = experiment: Antibacterial activity against methicillin-susceptible Staphylococcus aureus Smith infected in po dosed C3H mouse localized infection model assessed as reduction of number of CFU per gram of kidney administered 15 mins after infection measured after 48 hrs relative to control; format: functional
Staphylococcus aureus [18] = experiment: Antibacterial activity against methicillin-susceptible Staphylococcus aureus Smith infected in iv dosed C3H mouse localized infection model assessed as reduction of number of CFU per gram of kidney administered 15 mins after infection measured after 48 hrs relative to control; format: functional
Staphylococcus aureus [19] = experiment: Antibacterial activity against 3.6 x 10^8 CFU methicillin-resistant Staphylococcus aureus COL by dilution susceptibility test; format: functional
Staphylococcus aureus [20] = experiment: (§1) Antibacterial activity against methicillin-resistant Staphylococcus aureus COL infected in po dosed DBA/2 mouse localized infection model assessed as reduction of number of CFU per gram of thigh administered 2 hrs postinfection thrice daily for 1 day and once daily for 5 days measured after 48 hrs relative to control; format: functional
Staphylococcus aureus [21] = experiment: as §1, with “in iv” for “in po”, “for 1 day” for “for 5 days”; format: functional
Staphylococcus aureus [22] = experiment: as §1, with “against linezolid-resistant” for “against”, “aureus” for “aureus COL”, “C3H” for “DBA/2”; format: functional; conditions: Thigh muscle
Staphylococcus aureus [23] = experiment: (§2) Antibacterial activity against methicillin-resistant Staphylococcus aureus COL infected in po dosed DBA/2 mouse localized infection model assessed as log reduction in CFU per gram of thigh at 10 mg/kg, po administered 2 hrs postinfection thrice daily for 1 day and once daily for 5 days measured after 48 hrs by organ burden assay relative to control; format: functional
Staphylococcus aureus [24] = experiment: as §2, with “5” for “10”; format: functional
Staphylococcus aureus [25] = experiment: as §2, with “mg/kg, iv” for “mg/kg, po”, “for 1 day” for “for 5 days”; format: functional
Staphylococcus aureus [26] = experiment: as §2, with “at 5” for “at 10”, “mg/kg, iv” for “mg/kg, po”, “for 1 day” for “for 5 days”; format: functional
[27] = Fraction unbound in Staphylococcus aureus-infected mouse localized thigh infection model plasma at 25 mg/kg; format: ADME, organism-based; set-up: dose 25 mg/kg; conditions: read-out: PPB
[28] = Bioavailability in Staphylococcus aureus-infected mouse localized thigh infection model at 25 mg/kg; format: ADME, organism-based; conditions: in vivo
Staphylococcus aureus [29] = experiment: Antibacterial activity against 10^9 CFU linezolid-resistant methicillin-resistant Staphylococcus aureus by dilution susceptibility test; format: functional
Staphylococcus aureus [30] = experiment: Antibacterial activity against methicillin-resistant Staphylococcus aureus; format: functional, organism-based
Enterococcus = experiment: Antibacterial activity against vancomycin-resistant Enterococcus spp.; format: functional, organism-based
Streptococcus pneumoniae = experiment: Antibacterial activity against penicillin-resistant Streptococcus pneumoniae; format: functional, organism-based
Haemophilus influenzae = experiment: Antibacterial activity against Haemophilus influenzae by dilution susceptibility test; format: functional
Moraxella catarrhalis = experiment: Antibacterial activity against Moraxella catarrhalis by dilution susceptibility test; format: functional
Staphylococcus aureus [31] = experiment: Antibacterial activity against methicillin-susceptible Staphylococcus aureus Smith by dilution susceptibility test; format: functional
Staphylococcus aureus [32] = experiment: Antibacterial activity against methicillin-susceptible Staphylococcus aureus Smith infected in C3H mouse assessed as renal sterilization at 25 mg/kg/day, po administered 15 mins postinfection; format: functional, organism-based
Staphylococcus aureus [33] = experiment: Antibacterial activity against linezolid-resistant methicillin-resistant Staphylococcus aureus infected in C3H mouse localized infection model assessed as log reduction in CFU per gram of thigh at 100 mg/kg measured after 48 hrs by organ burden assay relative to control; format: functional

N#C[C@]1(c2ccc(-c3ccc(N4C[C@H](Cn5ccnn5)OC4=O)cc3F)cn2)[C@@H]2CNC[C@@H]21
Activity (Staphylococcus aureus [1]): 0%
Activity (Staphylococcus aureus [2]): 0%
Activity (Staphylococcus aureus [3]): 0%
Activity (Staphylococcus aureus [4]): 0%
Activity (Staphylococcus aureus [5]): 5.23
Activity (Staphylococcus aureus [6]): 2.93
Activity (Staphylococcus aureus [7]): 2.63
Activity (Staphylococcus aureus [8]): -0.26
Activity (Staphylococcus aureus [9]): 0%
Activity (Staphylococcus aureus [10]): 0%
Activity (Staphylococcus aureus [11]): 0%
Activity (Staphylococcus aureus [12]): 0%
Activity (Staphylococcus aureus [13]): 4.59
Activity (Staphylococcus aureus [14]): 4.46
Activity (Staphylococcus aureus [15]): 2.03
Activity (Staphylococcus aureus [16]): 0.06
ED99 (Staphylococcus aureus [17]): 4.9 mg/kg
ED99 (Staphylococcus aureus [18]): 6.3 mg/kg
MIC (Staphylococcus aureus [19]): 0.125 µg/mL (≈ 0.281 µM)
ED99 (Staphylococcus aureus [20]): 4.2 mg/kg
ED99 (Staphylococcus aureus [21]): 5.6 mg/kg
ED99 (Staphylococcus aureus [22]): 10.2 mg/kg
log10cfu (Staphylococcus aureus [23]): 3.7
log10cfu (Staphylococcus aureus [24]): 2
log10cfu (Staphylococcus aureus [25]): 1.5
log10cfu (Staphylococcus aureus [26]): 2.4
fraction unbound [27]: 0.19
bioavailability [28]: 30%
MIC (Staphylococcus aureus [29]): 1 µg/mL (≈ 2.24 µM)
Activity (Staphylococcus aureus [30]): Active
Activity (Enterococcus): Active
Activity (Streptococcus pneumoniae): Active
MIC90 (Haemophilus influenzae): 2 µg/mL (≈ 4.49 µM)
MIC90 (Moraxella catarrhalis): 0.5 µg/mL (≈ 1.12 µM)
MIC (Staphylococcus aureus [31]): 0.125 µg/mL (≈ 0.281 µM)

CC(=O)NC[C@H]1CN(c2ccc(N3CCOCC3)c(F)c2)C(=O)O1 [LINEZOLID]
Activity (Staphylococcus aureus [1]): 100%
Activity (Staphylococcus aureus [2]): 0%
Activity (Staphylococcus aureus [3]): 0%
Activity (Staphylococcus aureus [4]): 0%
Activity (Staphylococcus aureus [5]): 6.07
Activity (Staphylococcus aureus [6]): 2.71
Activity (Staphylococcus aureus [7]): 1.44
Activity (Staphylococcus aureus [8]): -0.53
Activity (Staphylococcus aureus [9]): 0%
Activity (Staphylococcus aureus [10]): 0%
Activity (Staphylococcus aureus [11]): 0%
Activity (Staphylococcus aureus [12]): 0%
Activity (Staphylococcus aureus [13]): 4.27
Activity (Staphylococcus aureus [14]): 1.44
Activity (Staphylococcus aureus [15]): -0.12
Activity (Staphylococcus aureus [16]): -0.27
ED99 (Staphylococcus aureus [17]): 7 mg/kg
ED99 (Staphylococcus aureus [18]): 12 mg/kg
MIC (Staphylococcus aureus [19]): 1 µg/mL (≈ 2.96 µM)
Activity (Staphylococcus aureus [32]): Active
ED99 (Staphylococcus aureus [20]): 5.2 mg/kg
ED99 (Staphylococcus aureus [21]): 6.9 mg/kg
ED99 (Staphylococcus aureus [22]): 85 mg/kg
log10cfu (Staphylococcus aureus [23]): 3.7
log10cfu (Staphylococcus aureus [24]): 2
log10cfu (Staphylococcus aureus [25]): 1.5
log10cfu (Staphylococcus aureus [26]): 2.4
fraction unbound [27]: 0.68
MIC (Staphylococcus aureus [29]): 64 µg/mL (≈ 190 µM)
log10cfu (Staphylococcus aureus [33]): 2.5
